Assay results published in PMC4501720 (PLoS ONE, 2015).

tested on: whole blood cells of group 3 pigs vaccinated with BCG-pAg85A; format: cell-based, pigs (Sus scrofa domestica)

| Substance | IFN-γ levels, BCG / pAg85A animal number 1 | IFN-γ levels, BCG / pAg85A animal number 2 | IFN-γ levels, BCG / pAg85A animal number 3 | IFN-γ levels, BCG / pAg85A animal number 4 | IFN-γ levels, BCG / pAg85A animal number 5 | IFN-γ levels, BCG / pAg85A animal number 6 |
| --- | --- | --- | --- | --- | --- | --- |
| 1–20: synthetic overlapping peptide of mature Ag85A, aa 1–20 (FSRPGLPVEYLQVPSPSMGR; UniProt P9WQP3 44-63, looked up, fragment) | <5 pg/mL | 305 pg/mL | <5 pg/mL | <5 pg/mL | 84 pg/mL | 13,875 pg/mL |
| 11–30: synthetic overlapping peptide of mature Ag85A, aa 11–30 (LQVPSPSMGRDIKVQFQSGG; UniProt P9WQP3 54-73, looked up, fragment) | <5 pg/mL | 1,115 pg/mL | <5 pg/mL | <5 pg/mL | 80 pg/mL | <5 pg/mL |
| 21–40: synthetic overlapping peptide of mature Ag85A, aa 21–40 (DIKVQFQSGGANSPALYLLD; UniProt P9WQP3 64-83, looked up, fragment) | <5 pg/mL | 681 pg/mL | <5 pg/mL | 128 pg/mL | 142 pg/mL | <5 pg/mL |
| 35–53: synthetic overlapping peptide of mature Ag85A, aa 35–53 (ALYLLDGLRAQDDFSGWDI; UniProt P9WQP3 78-96, looked up, fragment) | 4,594 pg/mL | 438 pg/mL | 74 pg/mL | <5 pg/mL | 2,105 pg/mL | <5 pg/mL |
| 51–70: synthetic overlapping peptide of mature Ag85A, aa 51–70 (WDINTPAFEWYDQSGLSVVM; UniProt P9WQP3 94-113, looked up, fragment) | 5,083 pg/mL | <5 pg/mL | <5 pg/mL | <5 pg/mL | 3,125 pg/mL | <5 pg/mL |
| 61–80: synthetic overlapping peptide of mature Ag85A, aa 61–80 (YDQSGLSVVMPVGGQSSFYS; UniProt P9WQP3 104-123, looked up, fragment) | 8,179 pg/mL | 354 pg/mL | 579 pg/mL | 75 pg/mL | 3,611 pg/mL | 444 pg/mL |
| 71–90: synthetic overlapping peptide of mature Ag85A, aa 71–90 (PVGGQSSFYSDWYQPACGKA; UniProt P9WQP3 114-133, looked up, fragment) | 217 pg/mL | <5 pg/mL | <5 pg/mL | <5 pg/mL | 289 pg/mL | <5 pg/mL |
| 81–100: synthetic overlapping peptide of mature Ag85A, aa 81–100 (DWYQPACGKAGCQTYKWETF; UniProt P9WQP3 124-143, looked up, fragment) | 1,900 pg/mL | 56 pg/mL | 2,968 pg/mL | 170 pg/mL | 1,547 pg/mL | <5 pg/mL |
| 91–108: 18-mer peptide spanning the sequence of Ag85B aa 91–108, used instead of Ag85A 91–110 (GCQTYKWETFLTSELPQW; UniProt P9WQP1 131-148, looked up, fragment) | <5 pg/mL | 2,332 pg/mL | 2,377 pg/mL | 308 pg/mL | 748 pg/mL | <5 pg/mL |
| 101–120: synthetic overlapping peptide of mature Ag85A, aa 101–120 (LTSELPGWLQANRHVKPTGS; UniProt P9WQP3 144-163, looked up, fragment) | 150 pg/mL | 1,646 pg/mL | 1,177 pg/mL | <5 pg/mL | 319 pg/mL | <5 pg/mL |
| 111–130: synthetic overlapping peptide of mature Ag85A, aa 111–130 (ANRHVKPTGSAVVGLSMAAS; UniProt P9WQP3 154-173, looked up, fragment) | 15,124 pg/mL | 2,879 pg/mL | 1,415 pg/mL | 33 pg/mL | 961 pg/mL | <5 pg/mL |
| 121–140: synthetic overlapping peptide of mature Ag85A, aa 121–140 (AVVGLSMAASSALTLAIYHP; UniProt P9WQP3 164-183, looked up, fragment) | 16,699 pg/mL | 2,367 pg/mL | 306 pg/mL | <5 pg/mL | 1,023 pg/mL | <5 pg/mL |
| 141–160: synthetic overlapping peptide of mature Ag85A, aa 141–160 (QQFVYAGAMSGLLDPSQAMG; UniProt P9WQP3 184-203, looked up, fragment) | 9,718 pg/mL | 232 pg/mL | 1,330 pg/mL | 894 pg/mL | 3,006 pg/mL | 837 pg/mL |
| 151–170: synthetic overlapping peptide of mature Ag85A, aa 151–170 (GLLDPSQAMGPTLIGLAMGD; UniProt P9WQP3 194-213, looked up, fragment) | 1,020 pg/mL | <5 pg/mL | 257 pg/mL | 71 pg/mL | 349 pg/mL | <5 pg/mL |
| 161–180: synthetic overlapping peptide of mature Ag85A, aa 161–180 (PTLIGLAMGDAGGYKASDMW; UniProt P9WQP3 204-223, looked up, fragment) | 1,501 pg/mL | <5 pg/mL | 556 pg/mL | 37 pg/mL | 463 pg/mL | <5 pg/mL |
| 171–190: synthetic overlapping peptide of mature Ag85A, aa 171–190 (AGGYKASDMWGPKEDPAWQR; UniProt P9WQP3 214-233, looked up, fragment) | 328 pg/mL | <5 pg/mL | 1,066 pg/mL | 22 pg/mL | 170 pg/mL | <5 pg/mL |
| 181–200: synthetic overlapping peptide of mature Ag85A, aa 181–200 (GPKEDPAWQRNDPLLNVGKL; UniProt P9WQP3 224-243, looked up, fragment) | 33 pg/mL | <5 pg/mL | 8 pg/mL | 17 pg/mL | <5 pg/mL | <5 pg/mL |
| 191–210: synthetic overlapping peptide of mature Ag85A, aa 191–210 (NDPLLNVGKLIANNTRVWVY; UniProt P9WQP3 234-253, looked up, fragment) | 266 pg/mL | <5 pg/mL | 156 pg/mL | 38 pg/mL | 560 pg/mL | <5 pg/mL |
| 201–220: synthetic overlapping peptide of mature Ag85A, aa 201–220 (IANNTRVWVYCGNGKPSDLG; UniProt P9WQP3 244-263, looked up, fragment) | 21 pg/mL | <5 pg/mL | 1,315 pg/mL | <5 pg/mL | <5 pg/mL | 197 pg/mL |
| 211–230: synthetic overlapping peptide of mature Ag85A, aa 211–230 (CGNGKPSDLGGNNLPAKFLE; UniProt P9WQP3 254-273, looked up, fragment) | 46 pg/mL | <5 pg/mL | 13 pg/mL | <5 pg/mL | <5 pg/mL | 218 pg/mL |
| 221–240: synthetic overlapping peptide of mature Ag85A, aa 221–240 (GNNLPAKFLEGFVRTSNIKF; UniProt P9WQP3 264-283, looked up, fragment) | 470 pg/mL | 4,455 pg/mL | 1,075 pg/mL | <5 pg/mL | 303 pg/mL | 2,980 pg/mL |
